The term Ki denotes the dissociation constant of the complex between target and ligand, obtained from inhibition or displacement.

Sequence of α7 nAChR subtype (Q05941 23-502): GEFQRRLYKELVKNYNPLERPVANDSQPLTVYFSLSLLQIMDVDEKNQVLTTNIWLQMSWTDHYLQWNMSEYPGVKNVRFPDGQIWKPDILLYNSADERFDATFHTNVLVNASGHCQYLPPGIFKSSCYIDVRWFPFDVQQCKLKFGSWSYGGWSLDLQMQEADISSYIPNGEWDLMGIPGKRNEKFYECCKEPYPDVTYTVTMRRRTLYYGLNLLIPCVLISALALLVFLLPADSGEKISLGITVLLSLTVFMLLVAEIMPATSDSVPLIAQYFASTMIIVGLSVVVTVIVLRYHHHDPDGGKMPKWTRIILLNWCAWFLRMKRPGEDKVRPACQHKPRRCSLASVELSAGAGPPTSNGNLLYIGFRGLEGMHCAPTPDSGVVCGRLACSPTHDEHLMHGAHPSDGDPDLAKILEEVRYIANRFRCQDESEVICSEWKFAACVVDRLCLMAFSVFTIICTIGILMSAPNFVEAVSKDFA

For the first experiment, the target named is α7 nAChR subtype (Rattus norvegicus, UniProt Q05941). Kind of experiment: Test A: 125I-α-Bungarotoxin binding to rat hippocampal membranes (affinity at α7 nAChR subtype). The conditions noted are these: [125I]α-BTX displacement, rat hippocampal membranes. As to the method:
Test A—Assay for Affinity at α7 nAChR subtype
125I-α-Bungarotoxin (BTX) binding to rat hippocampal membranes. Rat hippocampi were homogenized in 20 volumes of cold homogenization buffer (HB: concentrations of constituents (mM): tris(hydroxymethyl)aminomethane 50; MgCl2 1; NaCl 120; KCl 5: pH 7.4). The homogenate was centrifuged for 5 minutes at 1000 g, the supernatant was saved and the pellet re-extracted. The pooled supernatants were centrifuged for 20 minutes at 12,000 g, washed, and re-suspended in HB. Membranes (30-80 μg) were incubated with 5 nM [^125I] α-BTX, 1 mg/mL BSA (bovine serum albumin), test drug, and either 2 mM CaCl2 or 0.5 mM EGTA [ethylene glycol-bis(β-aminoethylether)] for 2 hours at 21° C., and then filtered and washed 4 times over Whatman glass fibre filters (thickness C) using a Brandel cell harvester.
Binding data analysis for Tests A and B
IC50 values and pseudo Hill coefficients (nH) were calculated using the non-linear curve fitting program ALLFIT (DeLean A, Munson P J and Rodbard D (1977) Am. J. Physiol., 235:E97-E102). […] Ki values were determined using 6 or more drug concentrations.
On to `COc1ccc(-c2ccc3c(c2)C(=O)N([C@H]2CN4CCC2CC4)C3)cc1` [Example 28, 2-(R)-1-Aza-bicyclo[2.2.2]oct-3-yl-6-(4-methoxy-phenyl)-2,3-dihydro-isoindol-1-one], for which the inhibitory constant (Ki) came out at 77 nM.

`O=C1c2cc(Cl)ccc2CN1[C@H]1CN2CCC1CC2` [Example 29, 2-(R)-1-Aza-bicyclo[2.2.2]oct-3-yl-6-chloro-2,3-dihydro-isoindol-1-one] yielded an inhibitory constant (Ki) of 289 nM.

In the case of `COc1cccc(-c2ccc3c(c2)C(=O)N([C@H]2CN4CCC2CC4)C3)c1` [Example 30, 2-(R)-1-Aza-bicyclo[2.2.2]oct-3-yl-6-(3-methoxy-phenyl)-2,3-dihydro-isoindol-1-one], the inhibitory constant (Ki) was determined as 21.8 nM.

Take `O=C1c2cc(-c3cccc(Cl)c3)ccc2CN1[C@H]1CN2CCC1CC2` [Example 31, 2-(R)-1-Aza-bicyclo[2.2.2]oct-3-yl-6-(3-chloro-phenyl)-2,3-dihydro-isoindol-1-one]: the Ki stood at 45.4 nM.

Regarding `O=C1c2cc(-c3ccc(Cl)cc3)ccc2CN1[C@H]1CN2CCC1CC2` [Example 32, 2-(R)-1-Aza-bicyclo[2.2.2]oct-3-yl-6-(4-chloro-phenyl)-2,3-dihydro-isoindol-1-one], the Ki is 90 nM.

For the compound `O=C1c2cc(-c3cccc4cccnc34)ccc2CN1[C@H]1CN2CCC1CC2` [Example 33, 2-(R)-1-Aza-bicyclo[2.2.2]oct-3-yl-6-quinolin-8-yl-2,3-dihydro-isoindol-1-one], the Ki amounted to 90 nM. This counts as double-digit nanomolar.

Consider `O=C1c2cc(-c3ccc4c(c3)OCO4)ccc2CN1[C@H]1CN2CCC1CC2` [Example 34, 2-(R)-1-Aza-bicyclo[2.2.2]oct-3-yl-6-benzo[1,3]dioxol-5-yl-2,3-dihydro-isoindol-1-one], for which the inhibition constant (Ki) is 37 nM.

As to `O=C1c2cc(-c3ccccc3Cl)ccc2CN1[C@H]1CN2CCC1CC2` [Example 35, 2-(R)-1-Aza-bicyclo[2.2.2]oct-3-yl-6-(2-chloro-phenyl)-2,3-dihydro-isoindol-1-one], affinity was put at a Ki of 6.3 nM.

`COc1ccccc1-c1ccc2c(c1)C(=O)N([C@H]1CN3CCC1CC3)C2` [Example 36, 2-(R)-1-Aza-bicyclo[2.2.2]oct-3-yl-6-(2-methoxy-phenyl)-2,3-dihydro-isoindol-1-one] had a Ki of 24 nM.

Consider `CC(=O)Nc1cccc(-c2ccc3c(c2)C(=O)N([C@H]2CN4CCC2CC4)C3)c1` [Example 37, N-[3-((R)-2-1-Aza-bicyclo[2.2.2]oct-3-yl-3-oxo-2,3-dihydro-1H-isoindol-5-yl)-phenyl]-acetamide], for which the Ki is 7 nM.

In the case of `CN1CCN(c2ccc3c(c2)C(=O)N([C@H]2CN4CCC2CC4)C3)CC1` [Example 38, 2-(R)-1-Aza-bicyclo[2.2.2]oct-3-yl-6-(4-methyl-piperazin-1-yl)-2,3-dihydro-isoindol-1-one], the inhibition constant Ki stood at 424 nM.

As to `O=C1c2cc(N3CCOCC3)ccc2CN1[C@H]1CN2CCC1CC2` [Example 39, 2-(R)-1-Aza-bicyclo[2.2.2]oct-3-yl-6-morpholin-4-yl-2,3-dihydro-isoindol-1-one], the inhibition constant (Ki) was determined as 421 nM.

Compound `CN(C)C(=O)c1ccc(-c2ccc3c(c2)C(=O)N([C@H]2CN4CCC2CC4)C3)cc1` [Example 40, 4-((R)-2-1-Aza-bicyclo[2.2.2]oct-3-yl-3-oxo-2,3-dihydro-1H-isoindol-5-yl)-N,N-dimethyl-benzamide] returned a Ki of 353 nM.

Consider `O=C1c2cc(-c3ccc4ncccc4c3)ccc2CN1[C@H]1CN2CCC1CC2` [Example 41, 2-(R)-1-Aza-bicyclo[2.2.2]oct-3-yl-6-quinolin-6-yl-2,3-dihydro-isoindol-1-one], for which the inhibition constant Ki was determined as 329 nM.

Regarding `O=C1c2cc(-c3cccc4ncccc34)ccc2CN1[C@H]1CN2CCC1CC2` [Example 42, 2-(R)-1-Aza-bicyclo[2.2.2]oct-3-yl-6-quinolin-5-yl-2,3-dihydro-isoindol-1-one], the inhibition constant Ki came to 89.6 nM.

Compound `CS(=O)(=O)c1cccc(-c2ccc3c(c2)C(=O)N([C@H]2CN4CCC2CC4)C3)c1` [Example 43, 2-(R)-1-Aza-bicyclo[2.2.2]oct-3-yl-6-(3-methanesulfonyl-phenyl)-2,3-dihydro-isoindol-1-one] gave a Ki of 94 nM.

Compound `CS(=O)(=O)c1ccc(-c2ccc3c(c2)C(=O)N([C@H]2CN4CCC2CC4)C3)cc1` [Example 44, 2-(R)-1-Aza-bicyclo[2.2.2]oct-3-yl-6-(4-methanesulfonyl-phenyl)-2,3-dihydro-isoindol-1-one] had a Ki of 321 nM.

Compound `O=C1c2cc(-c3cnc4ccccc4c3)ccc2CN1[C@H]1CN2CCC1CC2` [Example 45, 2-(R)-1-Aza-bicyclo[2.2.2]oct-3-yl-6-quinolin-3-yl-2,3-dihydro-isoindol-1-one] had an inhibition constant (Ki) of 66.8 nM.

The compound `COc1ccc(-c2ccc3c(c2)C(=O)N([C@H]2CN4CCC2CC4)C3)cn1` [Example 46, 2-(R)-1-Aza-bicyclo[2.2.2]oct-3-yl-6-(6-methoxy-pyridin-3-yl)-2,3-dihydro-isoindol-1-one] yielded an inhibitory constant (Ki) of 290 nM.

In the case of `O=C1c2cc(-c3cccc4cnccc34)ccc2CN1[C@H]1CN2CCC1CC2` [Example 47, 2-(R)-1-Aza-bicyclo[2.2.2]oct-3-yl-6-isoquinolin-5-yl-2,3-dihydro-isoindol-1-one], the inhibitory constant (Ki) was 32 nM.

For the compound `O=C1c2cc(-c3cncc4ccccc34)ccc2CN1[C@H]1CN2CCC1CC2` [Example 48, 2-(R)-1-Aza-bicyclo[2.2.2]oct-3-yl-6-isoquinolin-4-yl-2,3-dihydro-isoindol-1-one], the affinity corresponds to a Ki of 112 nM.

Take `CC(=O)Nc1ccc(-c2ccc3c(c2)C(=O)N([C@H]2CN4CCC2CC4)C3)cc1` [Example 49, N-[4-((R)-2-1-Aza-bicyclo[2.2.2]oct-3-yl-3-oxo-2,3-dihydro-1H-isoindol-5-yl)-phenyl]-acetamide]: the affinity corresponds to a Ki of 3.2 nM.

Compound `Cn1cc(-c2ccc3c(c2)C(=O)N([C@H]2CN4CCC2CC4)C3)cn1` [Example 50, 2-(R)-1-Aza-bicyclo[2.2.2]oct-3-yl-6-(1-methyl-1H-pyrazol-4-yl)-2,3-dihydro-isoindol-1-one] registered an inhibition constant Ki of 61 nM. Compared with the last compound, the Ki is about 19-fold higher.

For `O=C1c2cc(-c3cnn(Cc4ccccc4)c3)ccc2CN1[C@H]1CN2CCC1CC2` [Example 51, 2-(R)-1-Aza-bicyclo[2.2.2]oct-3-yl-6-(1-benzyl-1H-pyrazol-4-yl)-2,3-dihydro-isoindol-1-one], the inhibitory constant (Ki) came to 146 nM.

On to `CN(C)C(=O)c1cccc(-c2ccc3c(c2)C(=O)N([C@H]2CN4CCC2CC4)C3)c1` [Example 52, 3-((R)-2-1-Aza-bicyclo[2.2.2]oct-3-yl-3-oxo-2,3-dihydro-1H-isoindol-5-yl)-N,N-dimethyl-benzamide], for which the Ki turned out to be 31 nM. Compared with the last compound, the Ki is about 4.7-fold lower.

In the case of `CCNC(=O)c1ccc(-c2ccc3c(c2)C(=O)N([C@H]2CN4CCC2CC4)C3)cc1` [Example 53, 4-((R)-2-1-Aza-bicyclo[2.2.2]oct-3-yl-3-oxo-2,3-dihydro-1H-isoindol-5-yl)-N-ethyl-benzamide], the inhibitory constant (Ki) worked out at 348 nM. Compared with the last compound, the Ki is about 11-fold higher.

The compound `COc1cc(OC)cc(-c2ccc3c(c2)C(=O)N([C@H]2CN4CCC2CC4)C3)c1` [Example 54, 2-(R)-1-Aza-bicyclo[2.2.2]oct-3-yl-6-(3,5-dimethoxy-phenyl)-2,3-dihydro-isoindol-1-one] had a Ki of 669 nM.

`NC(=O)c1cccc(-c2ccc3c(c2)C(=O)N([C@H]2CN4CCC2CC4)C3)c1` [Example 55, 3-((R)-2-1-Aza-bicyclo[2.2.2]oct-3-yl-3-oxo-2,3-dihydro-1H-isoindol-5-yl)-benzamide] returned a Ki of 17 nM.

Compound `O=C(NCc1ccccc1)c1ccc(-c2ccc3c(c2)C(=O)N([C@H]2CN4CCC2CC4)C3)cc1` [Example 56, 4-((R)-2-1-Aza-bicyclo[2.2.2]oct-3-yl-3-oxo-2,3-dihydro-1H-isoindol-5-yl)-N-benzyl-benzamide] returned a Ki of 100 nM.

Compound `Nc1cccc(-c2ccc3c(c2)C(=O)N([C@H]2CN4CCC2CC4)C3)c1` [Example 57, 6-(3-Amino-phenyl)-2-(R)-1-aza-bicyclo[2.2.2]oct-3-yl-2,3-dihydro-isoindol-1-one] showed an inhibition constant Ki of 6.4 nM. Against the preceding compound, the Ki is about 16-fold lower.

As to `CCC(=O)Nc1cccc(-c2ccc3c(c2)C(=O)N([C@H]2CN4CCC2CC4)C3)c1` [Example 58, N-[3-((R)-2-1-Aza-bicyclo[2.2.2]oct-3-yl-3-oxo-2,3-dihydro-1H-isoindol-5-yl)-phenyl]-propionamide], the Ki was 1.7 nM. Compared with the last compound, the Ki is about 3.8-fold lower.

For `COc1cncc(-c2ccc3c(c2)C(=O)N([C@H]2CN4CCC2CC4)C3)c1` [Example 59, 2-(R)-1-Aza-bicyclo[2.2.2]oct-3-yl-6-(5-methoxy-pyridin-3-yl)-2,3-dihydro-isoindol-1-one], affinity was put at a Ki of 383 nM.

Turning to `O=C1c2cc(-c3ccc4c(c3)OCCO4)ccc2CN1[C@H]1CN2CCC1CC2` [Example 60, 2-(R)-1-Aza-bicyclo[2.2.2]oct-3-yl-6-(2,3-dihydro-benzo[1,4]dioxin-6-yl)-2,3-dihydro-isoindol-1-one], the Ki was found to be 28 nM. Against the preceding compound, the Ki is about 14-fold lower.

Consider `CC(C)Oc1cccc(-c2ccc3c(c2)C(=O)N([C@H]2CN4CCC2CC4)C3)c1` [Example 61, 2-(R)-1-Aza-bicyclo[2.2.2]oct-3-yl-6-(3-isopropoxy-phenyl)-2,3-dihydro-isoindol-1-one], for which the Ki was 14 nM.

In turn, `O=C1c2cc(-c3cccc(OC(F)(F)F)c3)ccc2CN1[C@H]1CN2CCC1CC2` [Example 62, 2-(R)-1-Aza-bicyclo[2.2.2]oct-3-yl-6-(3-trifluoromethoxy-phenyl)-2,3-dihydro-isoindol-1-one] showed a Ki of 48 nM.

Still in this experiment, the particulars now being: read-out: KD of radioligand (saturation curve, one site model).
Take “125I-α-Bungarotoxin [[^125I]-α-BTX, reference compound]”: the Kd is 1.67 nM.

Values taken from US7566727B2, “2-(1-aza-bicyclo[2.2.2]oct-3-yl)-2,3-dihydro-isoindole-1-one/5,6-dihydro-furo[2,3-c] pyrrol-4-one derivative ligands for alpha 7 nicotinic acetylcholine receptor” (priority 2004, dated 2009).
